Results from paper PMC9862037, “Interactions of Mycotoxin Alternariol with Cytochrome P450 Enzymes and OATP Transporters” (Metabolites, 2022).

What was measured:
OATP1B1 = OATP1B1 (Homo sapiens, UniProt Q9Y6L6); assay: cell-based; parameters: expressed in transfected cells; host or cells: A431; conditions: A431-OATP1B1; pyranine 10 µM; pH 5.5; 15 min; read-out: IC50, OATP1B1 inhibition
Method: A431 cell lines overexpressing human OATPs (1A2, 1B1, 1B3, or 2B1) and their mock transfected controls were generated earlier. A431 cells expressed no or negligible OATPs compared to the overexpressing cell lines. Cells were cultured in Dulbecco’s modified Eagle medium (DMEM, Thermo Fisher Scientific, Waltham, MA, USA) with 10% fetal bovine serum, 2 mM L-glutamine, 100 U/mL penicillin, and 100 µg/mL streptomycin at 37 °C, with 5% CO2. OATP expression was regularly monitored (based on the transport activity of transfected cells), and the cells were used up to 20 passages.
Interaction between OATPs (1A2, 1B1, 1B3, and 2B1) and AOH was measured in an indirect transport assay with pyranine or sulforhodamine 101 as fluorescent probes. A431 cell overexpressing OATPs or their mock transfected controls were seeded on 96-well plates one day prior to the measurements in 200 µL DMEM in 8 × 10^4 cells/well density. […] Fluorescence was measured in an Enspire plate reader (Perkin Elmer, Waltham, MA, USA) in Ex/Em wavelengths 460/510 nm for pyranine and 586/605 nm for sulforhodamine 101. Bottom reading was applied with two horizontal (X) and two vertical (Y) points, measurement height was 3 mm with 200 flashes. IC50 values were calculated by sigmoidal fitting (Hill1), using the Origin (version 2018, OriginLab Corporation, Northampton, MA, USA) software.

CYP2C9 = biological target: T1, CYP2C9 (Homo sapiens, UniProt P11712); assay: biochemical
T1 construct: purchased Merck; host or cells: yeast (inferred from the description of the CYPnull control, 'processed identically')
T1 sequence (P11712 whole entry): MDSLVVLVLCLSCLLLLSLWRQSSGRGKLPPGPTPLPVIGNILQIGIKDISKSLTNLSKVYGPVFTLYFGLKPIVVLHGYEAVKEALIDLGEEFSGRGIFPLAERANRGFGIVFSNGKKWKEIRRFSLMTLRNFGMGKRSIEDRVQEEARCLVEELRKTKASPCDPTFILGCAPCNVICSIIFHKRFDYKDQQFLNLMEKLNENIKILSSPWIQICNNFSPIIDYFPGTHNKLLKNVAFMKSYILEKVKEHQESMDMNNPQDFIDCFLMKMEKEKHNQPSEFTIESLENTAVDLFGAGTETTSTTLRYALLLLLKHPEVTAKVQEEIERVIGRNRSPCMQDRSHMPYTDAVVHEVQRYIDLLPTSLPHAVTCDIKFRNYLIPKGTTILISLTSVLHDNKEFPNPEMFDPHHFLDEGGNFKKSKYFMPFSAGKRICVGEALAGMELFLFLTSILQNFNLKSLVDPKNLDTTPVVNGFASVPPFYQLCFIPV
Method: The potential inhibitory effects of AOH on CYP2C9, 2C19, 2D6, and 3A4 enzymes were tested in vitro employing CypExpress human kits, using the substrates recommended by the U.S. Food and Drug Administration (FDA; https://www.fda.gov/drugs/drug-interactions-labeling/drug-development-and-drug-interactions-table-substrates-inhibitors-and-inducers; accessed on 19 December 2022) (diclofenac, S-mephenytoin, dextromethorphan, and testosterone, respectively). […] In these assays, the substrates and products were quantified by HPLC-UV [28].
IC50 values were calculated by sigmoidal fitting (Hill1), using the Origin (version 2018, OriginLab Corporation, Northampton, MA, USA) software.
After CYP450 incubations, the product formation rate was investigated using an integrated HPLC system (Jasco, Tokyo, Japan) built up from an autosampler (AS-4050), a binary pump (PU-4180), and a UV detector (UV-975). Chromatographic data were evaluated employing ChromNAV2 software (Jasco, Tokyo, Japan). Quantitative determinations of 4′-hydroxydiclofenac and diclofenac (CYP2C9), 4-hydroxymephenytoin and mephenytoin (CYP2C19), dextromethorphan and dextrorphan (CYP2D6), as well as testosterone and 6β-hydroxytestosterone (CYP3A4) were carried out as previously reported, without modifications.

CYP2C19 = biological target: T2, CYP2C19 (Homo sapiens, UniProt P33261); type: in vitro ADME; conditions: 5 μM AOH; significant (p < 0.01) only after 120 min
T2 construct: purchased Merck; host or cells: yeast (inferred from the description of the CYPnull control, 'processed identically')
T2 sequence (P33261 whole entry): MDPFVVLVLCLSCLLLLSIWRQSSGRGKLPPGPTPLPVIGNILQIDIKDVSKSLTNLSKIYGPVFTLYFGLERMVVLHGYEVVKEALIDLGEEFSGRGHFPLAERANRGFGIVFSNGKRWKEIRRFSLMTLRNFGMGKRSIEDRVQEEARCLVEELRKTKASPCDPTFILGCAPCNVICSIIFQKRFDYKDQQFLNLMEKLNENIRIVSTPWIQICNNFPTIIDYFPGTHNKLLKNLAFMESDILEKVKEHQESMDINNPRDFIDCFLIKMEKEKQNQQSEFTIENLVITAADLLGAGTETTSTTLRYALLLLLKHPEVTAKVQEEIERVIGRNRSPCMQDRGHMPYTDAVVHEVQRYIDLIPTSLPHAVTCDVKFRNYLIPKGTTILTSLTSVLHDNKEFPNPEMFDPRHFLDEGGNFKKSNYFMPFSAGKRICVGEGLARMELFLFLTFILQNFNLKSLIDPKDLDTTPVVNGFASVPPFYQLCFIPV
Method: To test the potential biotransformation of AOH by CYPs, the changes in the concentrations of AOH were examined in the presence of CYP1A2, 2C9, 2C19, 2D6, or 3A4 enzymes. Samples (final volume: 200 μL) containing AOH (5 μM), glucose-6-phosphate (500 μM), nicotinamide adenine dinucleotide phosphate (NADP^+, 200 μM), and the enzymes (CypExpress Cytochrome P450 reagents: 15 mg/mL each; including both CYP and glucose-6-phosphate dehydrogenase enzymes) were incubated for 0, 30, 60, 90, and 120 min (700 rpm, 30 °C) in potassium phosphate buffer (0.05 M, pH 7.5). The reaction was stopped by the addition of ice-cold methanol (100 μL), then the samples were centrifuged (10 min, 14,000 g, room temperature). AOH content of the supernatants was directly analyzed by HPLC-FLD (see details in Section 2.7). As a control, CypExpress Control reagent (CYPnull; 15 mg/mL) was also applied, which is a permeabilized and stabilized dried yeast powder (produced using an empty vector) and processed identically to CypExpress Cytochrome P450 products.
In CYP experiments, AOH was quantified with the above-described HPLC system, except that a fluorescence detector (FP-920; Jasco, Tokyo, Japan) was applied. Samples (20 μL) were driven through a Phenomenex Security Guard (C18, 4.0 × 3.0 mm) precolumn (Phenomenex, Torrance, CA, USA) linked to a Kinetex EVO-C18 (250 × 4.6 mm, 5 μm; Phenomenex) analytical column with 1.0 mL/min flow rate, at room temperature. For the isocratic elution, a mobile phase with 1 mM phosphoric acid (pH 3.0) and acetonitrile (65:35 v/v%) was applied. AOH was detected at 455 nm (λex = 345 nm). Limit of detection (LOD) and limit of quantification (LOQ) were established as the lowest concentrations when the signal-to-noise ratios were three and ten, respectively. The major validation parameters of this HPLC-FLD method were the following: linearity (R^2 = 0.997, in the 100–1000 nM concentration range); LOD = 100 nM; LOQ = 200 nM; intraday precision = 2.9% (n = 7); accuracy = 3.4% (n = 7).

Sequence of OATP1B1 (Q9Y6L6 whole entry): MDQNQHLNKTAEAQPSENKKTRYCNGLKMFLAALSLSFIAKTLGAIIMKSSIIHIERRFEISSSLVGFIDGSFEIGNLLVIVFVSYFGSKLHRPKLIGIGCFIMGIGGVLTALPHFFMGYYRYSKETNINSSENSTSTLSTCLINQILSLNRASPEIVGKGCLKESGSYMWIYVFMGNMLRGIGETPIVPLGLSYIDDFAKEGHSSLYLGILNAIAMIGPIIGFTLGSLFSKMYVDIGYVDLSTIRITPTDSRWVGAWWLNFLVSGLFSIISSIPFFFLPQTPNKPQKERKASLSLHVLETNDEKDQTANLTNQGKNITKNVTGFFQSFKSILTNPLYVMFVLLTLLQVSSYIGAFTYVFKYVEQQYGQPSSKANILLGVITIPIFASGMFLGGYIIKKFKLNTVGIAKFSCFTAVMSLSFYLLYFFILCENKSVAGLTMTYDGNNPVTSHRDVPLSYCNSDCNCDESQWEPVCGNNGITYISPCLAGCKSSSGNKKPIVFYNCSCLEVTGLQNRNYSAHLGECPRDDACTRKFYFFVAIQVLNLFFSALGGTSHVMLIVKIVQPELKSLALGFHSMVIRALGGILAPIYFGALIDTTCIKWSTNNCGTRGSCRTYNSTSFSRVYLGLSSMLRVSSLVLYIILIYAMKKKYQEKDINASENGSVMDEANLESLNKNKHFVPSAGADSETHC

With `Cc1cc(O)cc2oc(=O)c3c(O)cc(O)cc3c12` [AOH, Alternariol] the IC50 (OATP1B1) was 2 µM, the “decrease in the product formation (CYP2C9)” value (CYP2C9; 50 μM AOH) was greater than 80% and the IC50 (CYP2C9; diclofenac 4'-hydroxylation, read-out: IC50, CYP2C9 inhibition) was 7.4 µM. The “changes in AOH levels in the presence of CYP2C19” value (CYP2C19) was “slight decrease”.
